Here are results for 1 substance from patent publication US20110244496A1, “HIV REVERSE TRANSCRIPTASE COMPOSITIONS AND METHODS” (priority 2007, published 2011).

Like-named read-outs stand apart in the source and are kept apart here. A value given as a limit tells only on which side of the number the result lay.

One series has as its system HIV-1. Conditions: antiretroviral naïve patients; once daily 25, 50, 100, or 150 mg for seven days; day 8 versus before initial dosage; Goebel et al., 2006; cited from earlier work.
The conditions of series [1]: Goebel et al., 2006, cited from earlier work.
For a further series, the target named is T1, Y181C RT mutant (Human immunodeficiency virus type 1 group M subtype B, UniProt P03366, Y780C).
T1 construct: RT is a heterodimer consisting of a p66 and p51 subunit
Briefly: EC50 of TMC278 against Y181C mutant. In kind it is cell-based, HIV-1. Conditions: Example 4.

The next series concerns the target T2, K103N RT mutant (Human immunodeficiency virus type 1 group M subtype B, UniProt P03366, K702N).
T2 construct: RT is a heterodimer consisting of a p66 and p51 subunit
Put plainly: EC50 of TMC278 against K103N mutant. In kind it is cell-based, HIV-1. Conditions: Example 4.

In series [2] the target is T3, Leu100Ile/Lys103Asn double mutant RT (Human immunodeficiency virus type 1 group M subtype B, UniProt P03366, K702N/L699I).
T3 construct: RT is a heterodimer consisting of a p66 and p51 subunit
Briefly: EC50 of TMC278 against L100I/K103N double mutant. Format: cell-based, HIV-1. Conditions: Example 4 (Table 1, not given).

In series [3] the target is T4, Lys103Asn/Tyr181Cys double mutant RT (Human immunodeficiency virus type 1 group M subtype B, UniProt P03366, K702N/Y780C).
T4 construct: RT is a heterodimer consisting of a p66 and p51 subunit
Conditions: cited from earlier work.

The conditions of series [4]: patients given TMC278 once daily for seven days; Goebel et al., 2006; cited from earlier work.
The target in series [5] is T4, Lys103Asn/Tyr181Cys double mutant RT. Briefly: EC50 of TMC278 against K103N/Y181C double mutant. In kind it is cell-based, HIV-1. Conditions: Example 4.
Series [6] addresses T3, Leu100Ile/Lys103Asn double mutant RT. The conditions noted are these: cited from earlier work.
The target in the next series is T5, wild-type RT (Human immunodeficiency virus type 1 group M subtype B, UniProt P03366).
T5 construct: RT is a heterodimer consisting of a p66 and p51 subunit
Conditions: cited from earlier work.

With rilpivirine [TMC278], the “average decrease of HIV-1 RNA viral load” value in the series with HIV-1 is 1.199 log10 copies/ml. Moreover, the “plasma concentrations of TMC278” value in series [1] (at any of the time points tested, target concentration 13.5 ng/ml) is ≥ 13.5 ng/mL. In addition, the Bioavailability entry in [1] (patients, once daily dosage) is “excellent”. Moreover, the EC50 on Y181C RT mutant is < 1 nM; at K103N RT mutant it was < 1 nM; in series [2] it was ~8 nM; in [3] (K103N and Y181C (RT55A mutations), de Bethune et al. online poster 2005), 1.7 nM; in series [3] (Lys103Asn/Tyr181Cys double mutant, Guillemont et al., 2005, Janssen et al) it was 1 nM; in [5] it was < 1 nM. Also, the EC50 was 2.7 nM in series [6] (L100I and K103N (RT51A mutations), de Bethune et al. online poster 2005, read-out: EC50); 7 nM in [6] (double mutant Leu100Ile/Lys103Asn, Example 2, read-out: EC50 (the 50% effective concentration)); 0.4 nM at wild-type RT (Example 2, read-out: EC50 (the 50% effective concentration)); 0.51 nM at wild-type RT (de Bethune et al. online poster 2005, read-out: EC50). Besides, the “headaches reported, patients” value in [4] is 14%.
